Values quoted from earlier work in publication PMC4955970, “Stable, synthetic analogs of diadenosine tetraphosphate inhibit rat and human P2X3 receptors and inflammatory pain” (Molecular Pain, 2016).

System: P2X3R
Parameters: method as in PMID 11821019
Settings: EC50 and IC50 values taken from literature ref 41; cited from earlier work

Nc1ncnc2c1ncn2[C@@H]1O[C@H](COP(=O)(O)OP(=O)(O)OP(=O)(O)O)[C@@H](O)[C@H]1O [ATP]
EC50/IC50 index: 15.13

Nc1ncnc2c1ncn2[C@@H]1O[C@H](COP(=O)(O)OP(=O)(O)OP(=O)(O)OP(=O)(O)OC[C@H]2O[C@@H](n3cnc4c(N)ncnc43)[C@H](O)[C@@H]2O)[C@@H](O)[C@H]1O [Ap4A, P^1,P^4-diadenosine tetraphosphate]
EC50/IC50 index: 11.48
